ChEMBL document CHEMBL3259563, “The discovery of potent and selective non-steroidal glucocorticoid receptor modulators, suitable for inhalation” (Bioorg Med Chem Lett, 2014)
pIC50: −log10 of the molar value.

Key:
Cytochrome P450 3A4 = Cytochrome P450 3A4 (Homo sapiens, UniProt P08684); experiment: Inhibition of CYP3A4 (unknown origin); assay type: ADME
[1] = Clearance in iv dosed rat; assay type: ADME, organism-based; conditions: in vivo
Plasma = experiment: Fraction unbound in human plasma; assay type: ADME, cell-free
Hepatocyte = experiment: Intrinsic clearance in human hepatocytes; assay type: ADME, cell-based
Androgen receptor = target: T1, Androgen receptor (Homo sapiens, UniProt P10275); experiment: Binding affinity to androgen receptor (unknown origin)
T1 sequence (P10275 whole entry): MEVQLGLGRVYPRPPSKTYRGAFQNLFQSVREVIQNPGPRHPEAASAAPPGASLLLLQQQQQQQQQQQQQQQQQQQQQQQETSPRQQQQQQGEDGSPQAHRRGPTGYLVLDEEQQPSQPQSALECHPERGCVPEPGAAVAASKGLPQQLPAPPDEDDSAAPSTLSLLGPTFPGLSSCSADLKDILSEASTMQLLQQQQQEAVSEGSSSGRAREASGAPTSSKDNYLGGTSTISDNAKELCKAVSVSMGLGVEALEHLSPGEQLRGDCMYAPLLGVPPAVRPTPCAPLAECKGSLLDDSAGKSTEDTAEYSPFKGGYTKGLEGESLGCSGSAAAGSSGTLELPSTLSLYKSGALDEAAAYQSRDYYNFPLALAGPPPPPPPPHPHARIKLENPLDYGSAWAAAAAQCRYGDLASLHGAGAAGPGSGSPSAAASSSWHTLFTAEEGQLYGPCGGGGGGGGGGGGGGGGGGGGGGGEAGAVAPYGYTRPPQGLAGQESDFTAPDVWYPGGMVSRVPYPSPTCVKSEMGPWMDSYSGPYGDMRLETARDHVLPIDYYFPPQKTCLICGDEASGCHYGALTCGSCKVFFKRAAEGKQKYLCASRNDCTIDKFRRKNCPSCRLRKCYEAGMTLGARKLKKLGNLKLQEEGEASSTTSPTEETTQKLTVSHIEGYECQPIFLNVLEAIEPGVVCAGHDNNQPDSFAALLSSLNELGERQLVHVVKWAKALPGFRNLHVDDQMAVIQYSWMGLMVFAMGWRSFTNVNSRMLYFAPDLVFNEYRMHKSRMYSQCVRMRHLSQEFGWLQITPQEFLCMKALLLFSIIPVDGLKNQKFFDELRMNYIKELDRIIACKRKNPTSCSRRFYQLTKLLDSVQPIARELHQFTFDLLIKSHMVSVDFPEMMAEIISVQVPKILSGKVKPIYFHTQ

Glucocorticoid receptor [2] = target: T2, Glucocorticoid receptor (Homo sapiens, UniProt P04150)
T2 sequence (P04150 whole entry): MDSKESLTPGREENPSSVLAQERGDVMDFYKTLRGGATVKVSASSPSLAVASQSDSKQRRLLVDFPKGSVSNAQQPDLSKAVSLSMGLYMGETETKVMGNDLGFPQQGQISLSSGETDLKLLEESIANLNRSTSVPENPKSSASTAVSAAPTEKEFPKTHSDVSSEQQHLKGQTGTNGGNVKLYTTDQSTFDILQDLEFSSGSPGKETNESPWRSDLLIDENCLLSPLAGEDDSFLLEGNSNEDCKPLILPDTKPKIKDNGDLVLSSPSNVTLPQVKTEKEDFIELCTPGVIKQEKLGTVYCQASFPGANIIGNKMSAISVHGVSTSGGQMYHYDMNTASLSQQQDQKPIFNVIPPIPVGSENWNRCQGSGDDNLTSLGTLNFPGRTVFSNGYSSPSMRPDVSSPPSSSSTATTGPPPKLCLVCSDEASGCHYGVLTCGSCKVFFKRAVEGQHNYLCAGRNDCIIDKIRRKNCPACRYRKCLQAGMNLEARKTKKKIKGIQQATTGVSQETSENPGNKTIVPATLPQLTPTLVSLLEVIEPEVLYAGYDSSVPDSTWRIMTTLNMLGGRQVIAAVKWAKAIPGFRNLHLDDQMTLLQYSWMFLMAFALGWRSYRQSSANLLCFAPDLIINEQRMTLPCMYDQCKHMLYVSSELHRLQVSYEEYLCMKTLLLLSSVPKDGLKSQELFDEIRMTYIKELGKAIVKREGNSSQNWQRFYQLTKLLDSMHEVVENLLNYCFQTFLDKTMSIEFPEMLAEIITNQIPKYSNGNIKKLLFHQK
Description: Agonist activity at glucocorticoid receptor in human Chago K1 cells assessed as gene transrepression by Lac-Z reporter gene assay

Cytochrome P450 2C19 = Cytochrome P450 2C19 (Homo sapiens, UniProt P33261); experiment: Inhibition of CYP2C19 (unknown origin); assay type: ADME
Glucocorticoid receptor [3] = target: T3, Glucocorticoid receptor (Rattus norvegicus, UniProt P06536); experiment: Agonist activity at glucocorticoid receptor in rat PBMC assessed as inhibition of LPS-stimulated TNF-alpha release
T3 sequence (P06536 whole entry): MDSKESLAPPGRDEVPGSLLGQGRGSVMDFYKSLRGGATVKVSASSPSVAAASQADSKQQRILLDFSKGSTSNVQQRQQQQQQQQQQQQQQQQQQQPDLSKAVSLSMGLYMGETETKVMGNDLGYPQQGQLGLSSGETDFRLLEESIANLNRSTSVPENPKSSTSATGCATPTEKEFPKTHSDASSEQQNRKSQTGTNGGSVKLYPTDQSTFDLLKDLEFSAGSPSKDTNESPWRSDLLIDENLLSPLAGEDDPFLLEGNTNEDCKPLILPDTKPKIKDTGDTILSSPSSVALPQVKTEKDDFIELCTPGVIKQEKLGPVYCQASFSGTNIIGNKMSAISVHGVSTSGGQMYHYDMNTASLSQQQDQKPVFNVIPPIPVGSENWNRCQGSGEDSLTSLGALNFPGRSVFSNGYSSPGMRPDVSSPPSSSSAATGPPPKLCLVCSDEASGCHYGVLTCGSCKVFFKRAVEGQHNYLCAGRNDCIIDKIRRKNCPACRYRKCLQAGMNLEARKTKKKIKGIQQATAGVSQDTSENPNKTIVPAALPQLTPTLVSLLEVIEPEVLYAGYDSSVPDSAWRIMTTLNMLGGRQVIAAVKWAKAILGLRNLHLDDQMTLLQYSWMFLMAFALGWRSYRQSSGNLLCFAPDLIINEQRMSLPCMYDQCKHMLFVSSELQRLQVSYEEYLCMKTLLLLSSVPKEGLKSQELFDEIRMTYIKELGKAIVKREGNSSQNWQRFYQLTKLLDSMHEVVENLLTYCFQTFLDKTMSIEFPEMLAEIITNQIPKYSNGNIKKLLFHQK

Chain of Cytochrome P450 3A4 (P08684 whole entry): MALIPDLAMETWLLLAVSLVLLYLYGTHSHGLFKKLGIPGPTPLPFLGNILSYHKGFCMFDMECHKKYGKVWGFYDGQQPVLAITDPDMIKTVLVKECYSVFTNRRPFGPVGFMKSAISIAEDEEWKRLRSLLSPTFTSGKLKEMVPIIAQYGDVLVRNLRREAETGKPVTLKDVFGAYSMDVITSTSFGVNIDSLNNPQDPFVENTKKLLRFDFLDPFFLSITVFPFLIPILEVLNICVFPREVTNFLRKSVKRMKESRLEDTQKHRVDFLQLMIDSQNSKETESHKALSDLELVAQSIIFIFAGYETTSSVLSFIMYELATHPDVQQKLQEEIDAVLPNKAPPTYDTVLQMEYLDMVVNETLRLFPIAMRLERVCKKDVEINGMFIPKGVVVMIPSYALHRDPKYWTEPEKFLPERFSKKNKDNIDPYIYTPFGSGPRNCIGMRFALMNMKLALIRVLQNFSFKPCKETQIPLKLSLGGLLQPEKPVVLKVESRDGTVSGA
Chain of Cytochrome P450 2C19 (P33261 whole entry): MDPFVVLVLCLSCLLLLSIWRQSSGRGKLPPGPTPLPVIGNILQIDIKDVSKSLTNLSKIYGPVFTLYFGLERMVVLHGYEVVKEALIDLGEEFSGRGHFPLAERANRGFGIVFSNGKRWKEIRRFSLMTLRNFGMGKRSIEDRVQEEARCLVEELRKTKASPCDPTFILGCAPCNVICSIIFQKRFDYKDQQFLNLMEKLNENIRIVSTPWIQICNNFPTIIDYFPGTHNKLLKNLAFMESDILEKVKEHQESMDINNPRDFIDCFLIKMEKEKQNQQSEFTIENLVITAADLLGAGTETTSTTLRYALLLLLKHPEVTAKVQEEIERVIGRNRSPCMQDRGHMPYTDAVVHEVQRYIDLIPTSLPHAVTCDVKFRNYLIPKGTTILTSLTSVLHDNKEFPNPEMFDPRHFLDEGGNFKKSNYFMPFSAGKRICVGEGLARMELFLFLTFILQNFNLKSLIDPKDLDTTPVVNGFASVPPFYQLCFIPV

SMILES: Cc1nn(C2CCCC2)c(C)c1S(=O)(=O)N[C@@H](C)CNc1cccc2c1cnn2-c1ccc(F)nc1
- pIC50 (Cytochrome P450 3A4): 4.66
- clearance [1]: 78 mL/min/kg
- Fu (Plasma): 0.005%
- CLH (Hepatocyte): 47 µL/min
- pIC50 (Androgen receptor): < 6.00
- pIC50 (Glucocorticoid receptor [2]): 8.14
- pIC50 (Cytochrome P450 2C19): < 4.70
- pIC50 (Glucocorticoid receptor [3]): 8.35
